As usually defined, the Kd is the constant that tells how readily two partners part at equilibrium.

Experiment [1] concerns the target T1, human PCSK9 (Homo sapiens, UniProt Q8NBP7).
T1 construct: Purified recombinant full length human PCSK9 with C-terminal biotinylated Avitag
In words: SPR binding to biotinylated human PCSK9 (Proteon XPR36). On the procedure:
SPR was used to obtain the binding data for PCSK9 receptor ligand compound (C5), either alone or as part of the bifunctional compounds (BFC1), respectively.
SPR Binding experiments were performed on a Proteon XPR36 instrument (Bio-Rad Laboratories). Purified recombinant full length human PCSK9 with C-terminal biotinylated Avitag was used for the assay. Biotinylated human PCSK9 was incubated with fivefold molar excess of bifunctional compound (BFC1) or compound (C5), and immobilized onto a Neutravidin coated sensor chip. (NLC chip, Bio-Rad Laboratories, Inc). After conditioning the chip by injecting running buffer (20 mM Tris pH7.5, 300 mM NaCl, 25 mM CaCl2, 2 mM betamercaptoethanol, 2% DMSO and 0.05% Tween-20) at a flow rate of 0.1 mL/min for 240 s, PCSK9 protein was injected at a protein concentration of 0.02 mg/ml in running buffer with fivefold molar excess of bifunctional compound and a flow rate of 0.03 mL/min followed by 4 washes with running buffer with 1 μM of bifunctional compound (0.1 mL/min for 60 seconds each).
To perform sandwich SPR binding assays, His-ASGPR1 (62-291) protein stocks were diluted with running buffer to a desired concentration. ASGPR was injected at a flow rate of 0.1 mL/min for 240 s and allowed to dissociate for 1200 s. Sensorgrams were recorded for association and dissociation phases. All sensorgrams were processed by subtracting the binding response recorded from a blank control surfaces (or interspot surfaces), followed by subtracting buffer blank injections from the reaction surface. Data were processed with the ProteOn Manager software (version 3.1.0.6, Bio-Rad, Inc.).
On the technique in general: In SPR one partner is held on a chip, and binding of the other changes the refractive index at the surface.

Experiment [2] concerns the target T2, human ASGPR1 (Homo sapiens, UniProt P07306).
T2 construct: Recombinant extracellular domain of human ASGPR1 with N-terminal biotinylated Avitag
T2 sequence (P07306 62-291 limits assumed): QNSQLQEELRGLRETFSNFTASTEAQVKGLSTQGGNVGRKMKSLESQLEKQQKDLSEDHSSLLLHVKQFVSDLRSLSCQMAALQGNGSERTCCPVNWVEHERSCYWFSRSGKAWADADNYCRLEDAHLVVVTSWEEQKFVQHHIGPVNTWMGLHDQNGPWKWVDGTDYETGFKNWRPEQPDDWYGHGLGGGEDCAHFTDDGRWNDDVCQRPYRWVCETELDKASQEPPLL
Briefly: ASGPR1 SPR direct binding (Biacore, SA chip). As to the method:
SPR was used to obtain the binding data for ASGP receptor ligand compound (int-CC2), either alone or as part of the bifunctional compounds (BFC-13), (BFC-15) and (BFC16).
(§1) ASGPR1 SPR experiments were performed on either Biacore T200 or Biacore 8K. The assay was optimized for Biacore (Streptavidin) SA chip in running buffer consisting of 20 mM HEPES, 300 mM NaCl, 2 mM CaCl2, 0.01% tween-20, 2% DMSO, pH 7.4. Recombinant extracellular domain of human ASGPR1 with N-terminal biotinylated Avitag was diluted to 20 μg/mL in running buffer, and immobilized onto SA chip after it was preconditioned with at least four 60-second injections at 30 uL/min of 1 M NaCl/40 mM NaOH solution. Protein immobilization level varied from 500 RU to 3500 RU dependent on analytes' molecular weight, for targeted Rmax of 30 RUs. Direct binding of analytes to ASGPR1 was observed when a dose response titration of analytes in 2% DMSO was flown over the immobilized protein. Data analysis was done on either Biacore T200 Evaluation Software or Biacore Insight Evaluation Software.
SPR was used to obtain the binding data for ASGP receptor ligand compounds (int-CC2), either alone or as part of the bifunctional compounds (BFC1).
as §1, with “Biacore” for “Biacore (Streptavidin)”

Where [3] appears, read: Bifunctional Compound, SPR, read-out: PCSK9 KD.
Setting [4] is: Bifunctional Compound (PCSK9 series), Table 9, read-out: ASGPR binding KD.
Where [5] appears, read: Free Ligand, SPR, read-out: PCSK9 KD.

SMILES strings stand for the structures. Read-outs that look alike come from different tables or passages of the source. Positions of bridges follow the written chain, without caps; N, C: chain ends. Non-standard residues stand in square brackets, D forms with d. Residues, ends and D or L forms follow the SMILES beside them. *: point of attachment. X4 = CC(=O)N[C@H]1[C@H](OCCCCC(=O)NCCCNCC(=O)CCOCC(COCCC(=O)NCCCNC(=O)CCCCO[C@@H]2O[C@H](CO)[C@H](O)[C@H](O)[C@H]2NC(C)=O)(COCCC(=O)NCCCNC(=O)CCCCO[C@@H]2O[C@H](CO)[C@H](O)[C@H](O)[C@H]2NC(C)=O)NC(=O)CCCCCCC(=O)*)O[C@H](CO)[C@H](O)[C@@H]1O; X1 = CC(=O)N[C@H]1[C@H]2OC[C@](COCCOCCOCCOCCn3cc(COCCNC(=O)CCOCCOCCOCCOCCC(=O)*)nn3)(O2)[C@H](O)[C@@H]1O; Bip = N[C@@H](Cc1ccc(-c2ccccc2)cc1)C(=O)O; Levulinoyl = CC(=O)CCC(=O)*; NMeA = CN[C@@H](C)C(=O)O

T1 sequence (Q8NBP7 153-692): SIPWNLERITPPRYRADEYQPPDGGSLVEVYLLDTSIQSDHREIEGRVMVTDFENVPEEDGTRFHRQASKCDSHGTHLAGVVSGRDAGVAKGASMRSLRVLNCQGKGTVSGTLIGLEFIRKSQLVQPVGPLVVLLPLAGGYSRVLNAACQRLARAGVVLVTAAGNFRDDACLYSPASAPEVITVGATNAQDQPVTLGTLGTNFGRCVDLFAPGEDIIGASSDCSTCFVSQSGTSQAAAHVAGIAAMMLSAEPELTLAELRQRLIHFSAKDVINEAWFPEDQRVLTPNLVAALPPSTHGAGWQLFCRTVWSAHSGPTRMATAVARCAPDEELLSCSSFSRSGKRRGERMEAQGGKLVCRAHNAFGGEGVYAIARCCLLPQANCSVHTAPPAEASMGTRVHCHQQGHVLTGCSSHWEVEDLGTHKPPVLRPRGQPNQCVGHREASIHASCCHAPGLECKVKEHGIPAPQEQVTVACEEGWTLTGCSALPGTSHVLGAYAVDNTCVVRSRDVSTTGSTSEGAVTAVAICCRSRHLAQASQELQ

For the compound `CC(=O)N[C@H]1[C@H](OCCCCC(=O)NCCCNCC(=O)CCOCC(COCCC(=O)NCCCNC(=O)CCCCO[C@@H]2O[C@H](CO)[C@H](O)[C@H](O)[C@H]2NC(C)=O)(COCCC(=O)NCCCNC(=O)CCCCO[C@@H]2O[C@H](CO)[C@H](O)[C@H](O)[C@H]2NC(C)=O)NC(=O)CCCCCCC(=O)NCCCC[C@H](NC(=O)CNC(=O)[C@@H]2CSCC(=O)N[C@@H](Cc3ccccc3)C(=O)N[C@@H](C(C)C)C(=O)N3CCC[C@H]3C(=O)N[C@@H]([C@@H](C)O)C(=O)N[C@@H]([C@@H](C)O)C(=O)N[C@@H](Cc3ccc(-c4ccccc4)cc3)C(=O)N(C)[C@@H](C)C(=O)N[C@@H](Cc3ccc(-c4ccccc4)cc3)C(=O)N(C)[C@@H](C)C(=O)N[C@@H](CCC(=O)O)C(=O)N[C@@H](C)C(=O)N3CCC[C@H]3C(=O)N2)C(N)=O)O[C@H](CO)[C@H](O)[C@@H]1O` [BFC-1] ({CH2CO}-FVPTT[Bip][NMeA][Bip][NMeA]EAPCGK(X4)-NH2; thioether N-13), the results for the equilibrium dissociation constant (Kd) in experiment [1] (setting [3]) and in experiment [2] (setting [4]) were 3.9 nM and 0.32 nM, respectively.

In turn, `CC(C)[C@@H]1NC(=O)[C@H](Cc2ccccc2)NC(=O)CSC[C@@H](C(=O)NCC(=O)N[C@@H](CCCCNC(=O)OC[C@@H]2[C@@H]3CCc4c(nnn4CCCCCCO[C@H](O[C@@H](/C=N/OCC(=O)NNC(=O)CCCO[C@@H]4O[C@H](CO[C@H]5O[C@H](CO[C@H]6O[C@H](CO)[C@@H](O)[C@H](O)[C@@H]6O[C@H]6O[C@H](COP(=O)(O)O)[C@@H](O)[C@H](O)[C@@H]6O)[C@@H](O)[C@H](O)[C@@H]5O)[C@@H](O)[C@H](O[C@H]5O[C@H](CO)[C@@H](O)[C@H](O)[C@@H]5O[C@H]5O[C@H](COP(=O)(O)O)[C@@H](O)[C@H](O)[C@@H]5O)[C@@H]4O)CO)[C@H](O)/C=N\OCC(=O)NNC(=O)CCCO[C@@H]4O[C@H](CO[C@H]5O[C@H](CO[C@H]6O[C@H](CO)[C@@H](O)[C@H](O)[C@@H]6O[C@H]6O[C@H](COP(=O)(O)O)[C@@H](O)[C@H](O)[C@@H]6O)[C@@H](O)[C@H](O)[C@@H]5O)[C@@H](O)[C@H](O[C@H]5O[C@H](CO)[C@@H](O)[C@H](O)[C@@H]5O[C@H]5O[C@H](COP(=O)(O)O)[C@@H](O)[C@H](O)[C@@H]5O)[C@@H]4O)CC[C@@H]32)C(N)=O)NC(=O)[C@@H]2CCCN2C(=O)[C@H](C)NC(=O)[C@H](CCC(=O)O)NC(=O)[C@H](C)N(C)C(=O)[C@H](Cc2ccc(-c3ccccc3)cc2)NC(=O)[C@H](C)N(C)C(=O)[C@H](Cc2ccc(-c3ccccc3)cc2)NC(=O)[C@H]([C@@H](C)O)NC(=O)[C@H]([C@@H](C)O)NC(=O)[C@@H]2CCCN2C1=O` [BFC-3] yielded a Kd in experiment [1] of 7.7 nM.

With `CC(=O)N[C@H]1[C@H]2OC[C@](COCCOCCOCCOCCn3cc(COCCNC(=O)CCOCCOCCOCCOCCC(=O)NCCCC[C@H](NC(=O)CNC(=O)[C@@H]4CSCC(=O)N[C@@H](Cc5ccccc5)C(=O)N[C@@H](C(C)C)C(=O)N5CCC[C@H]5C(=O)N[C@@H]([C@@H](C)O)C(=O)N[C@@H]([C@@H](C)O)C(=O)N[C@@H](Cc5ccc(-c6ccccc6)cc5)C(=O)N(C)[C@@H](C)C(=O)N[C@@H](Cc5ccc(-c6ccccc6)cc5)C(=O)N(C)[C@@H](C)C(=O)N[C@@H](CCC(=O)O)C(=O)N[C@@H](C)C(=O)N5CCC[C@H]5C(=O)N4)C(N)=O)nn3)(O2)[C@H](O)[C@@H]1O` [BFC-5] ({CH2CO}-FVPTT[Bip][NMeA][Bip][NMeA]EAPCGK(X1)-NH2; thioether N-13), the Kd was 4.6 nM in experiment [1] (setting [3]) and 90 nM in experiment [2] (setting [4]).

With `CC(=O)N[C@H]1[C@H]2OC[C@](COCCOCCOCCOCCn3cc(COCC(COCc4cn(CCOCCOCCOCCOC[C@@]56CO[C@@H](O5)[C@H](NC(C)=O)[C@@H](O)[C@H]6O)nn4)(COCc4cn(CCOCCOCCOCCOC[C@@]56CO[C@@H](O5)[C@H](NC(C)=O)[C@@H](O)[C@H]6O)nn4)NC(=O)CCOCCOCCOCCOCCC(=O)NCCCC[C@H](NC(=O)CNC(=O)[C@@H]4CSCC(=O)N[C@@H](Cc5ccccc5)C(=O)N[C@@H](C(C)C)C(=O)N5CCC[C@H]5C(=O)N[C@@H]([C@@H](C)O)C(=O)N[C@@H]([C@@H](C)O)C(=O)N[C@@H](Cc5ccc(-c6ccccc6)cc5)C(=O)N(C)[C@@H](C)C(=O)N[C@@H](Cc5ccc(-c6ccccc6)cc5)C(=O)N(C)[C@@H](C)C(=O)N[C@@H](CCC(=O)O)C(=O)N[C@@H](C)C(=O)N5CCC[C@H]5C(=O)N4)C(N)=O)nn3)(O2)[C@H](O)[C@@H]1O` [BFC-6], the Kd was 5.8 nM in experiment [1] (setting [3]) and under 1 nM in experiment [2] (setting [4]).

Consider `COC[C@@H]1NC(=O)[C@H](CCCNC(=O)CCOCCOCCOCCOCCC(=O)NCCOCc2cn(CCOCCOCCOCCOC[C@@]34CO[C@@H](O3)[C@H](NC(C)=O)[C@@H](O)[C@H]4O)nn2)N(Cc2ccc(Cl)cc2Oc2ccc(-c3cnc(CN(C)C)n3C)cc2)C(=O)C[C@@H](Cc2ccccc2)C(=O)N(C)[C@H]2CCCC[C@@H]2NC(=O)C[C@H](Cc2ccc(Cl)cc2)N(C)C1=O` [BFC-12], for which, in experiment [2] (setting [4]), the Kd was 22 nM.

In the case of `CC(=O)CCC(=O)NCCCC[C@H](NC(=O)CNC(=O)[C@@H]1CSCC(=O)N[C@@H](Cc2ccccc2)C(=O)N[C@@H](C(C)C)C(=O)N2CCC[C@H]2C(=O)N[C@@H]([C@@H](C)O)C(=O)N[C@@H]([C@@H](C)O)C(=O)N[C@@H](Cc2ccc(-c3ccccc3)cc2)C(=O)N(C)[C@@H](C)C(=O)N[C@@H](Cc2ccc(-c3ccccc3)cc2)C(=O)N(C)[C@@H](C)C(=O)N[C@@H](CCC(=O)O)C(=O)N[C@@H](C)C(=O)N2CCC[C@H]2C(=O)N1)C(N)=O` [C5] ({CH2CO}-FVPTT[Bip][NMeA][Bip][NMeA]EAPCGK(Levulinoyl)-NH2; thioether N-13), in experiment [1] (setting [5]), the Kd stood at 1.2 nM.

`COC[C@@H]1NC(=O)[C@H](CCCN)N(Cc2ccc(Cl)cc2Oc2ccc(-c3cnc(CN(C)C)n3C)cc2)C(=O)C[C@@H](Cc2ccccc2)C(=O)N(C)[C@H]2CCCC[C@@H]2NC(=O)C[C@H](Cc2ccc(Cl)cc2)N(C)C1=O` [C9, (4S,7S,10S,14R,16aS,20aS)-10-(3-aminopropyl)-14-benzyl-11-(4-chloro-2-(4-(2-((dimethylamino)methyl)-1-methyl-1H-imidazol-5-yl)phenoxy)benzyl)-4-(4-chlorobenzyl)-7-(methoxymethyl)-5,16-dimethylhexadecahydrobenzo[1][1,4,7,11,14]pentaazacyclooctadecine-2,6,9,12,15 (3H)-pentaone]: in experiment [1] (setting [5]), the Kd is under 1 nM.

Regarding `CC(=O)N[C@H]1[C@H](OCCCCC(=O)NCCCNC(=O)CCOCC(N)(COCCC(=O)NCCCNC(=O)CCCCOC2O[C@H](CO)[C@H](O)[C@H](O)[C@H]2NC(C)=O)COCCC(=O)NCCCNC(=O)CCCCO[C@@H]2O[C@H](CO)[C@H](O)[C@H](O)[C@H]2NC(C)=O)O[C@H](CO)[C@H](O)[C@@H]1O` (stereo partly drawn) [int-CC2, N,N′-(10-((3-((3-(5-(((3R,4R,5R,6R)-3-acetamido-4,5-dihydroxy-6-(hydroxymethyl)tetrahydro-2H-pyran-2-yl)oxy)pentanamido)propyl)amino)-3-oxopropoxy)methyl)-10-amino-5,15-dioxo-8,12-dioxa-4,16-diazanonadecane-1,19-diyl)bis(5-(((2R,3R,4R,5R,6R)-3-acetamido-4,5-dihydroxy-6-(hydroxymethyl)tetrahydro-2H-pyran-2-yl)oxy)pentanamide)], the Kd in experiment [2] (Free Ligand, Table 7, read-out: ASGPR KD) was determined as 0.9 nM.

(Values after patent US12605451B2, “Targeted plasma protein degradation” (Novartis AG, priority 2020, dated 2026).)
